From patent US20210348177A1, “GENERATION OF HERITABLY GENE-EDITED PLANTS WITHOUT TISSUE CULTURE” (priority 2018, published 2021)
Entries after “also recorded” stand apart in the source; their conditions may differ.

Tests used:
Arabidopsis thaliana = details: no DAAO; cited from earlier work
plants that express DAAO = details: at the level of 30 mM; cited from earlier work
[1] = test system: transgenic Arabidopsis root explants / leaf explants; details: 0.1 mM GAN; cited from earlier work
transgene-free plants = test: Toxicity of GAN: shoot regeneration of decapitated transgene-free (wildtype) plants; type: in vivo, tomato; details: for Regeneration of transgene-free plants (control): one month after decapitation
Description: (§1) Roughly one week later, seedlings were decapitated at the injection site using a sharp razor blade. Immediately after decapitation, parafilm was stretched over the decapitation site, to prevent the stem from drying out, and aluminum foil was added to cover the parafilm, shading the cut site to promote callus formation. Plants were returned to growth chamber and monitored for axillary shoot formation and callus regeneration. New shoots forming from the cotyledon axillary buds were removed using forceps as soon as they were observed.
(§2) After 1-2 weeks, the cut site of the stem began forming a white callus, and selection gel was applied. Carbomer 940 powder was added to a water solution containing selection agents to make 0.5% w/v carbomer gel. The pH was adjusted with KOH to 7.5 to thicken the gel. The gel containing the selecting agents was added to the decapitated plants by putting a droplet of the gel to the wound site of the shoot using spatula, about 40-50 uL in volume. Parafilm and aluminum foil was placed back on the cut site, and plants were returned to growth chamber. […] Parafilm and foil were removed from decapitation sites, and shoots were allowed to grow.
(§3) Solutions of D-amino acids were made from D-valine powder (MP Biomedicals 0210322625) and D/L-isoleucine powder (MP Biomedicals 0210208225). Zirgan (ganciclovir ophthalmic gel) 0.15%, an antiviral eye gel was used in making GAN gel, as well as in direct application on decapitated plants.
(§4) HSVtk (no Cas9) plants were germinated and grown in soil. They were decapitated about three weeks after they were sown. The selecting agent, GAN (Ganciclovir), was applied to the decapitated plants after the decapitation. We made a series of GAN gels with different GAN concentrations: 0.1 mM, 1 mM, and 4.5 mM. The 0.1 mM and 1 mM GAN gel was made by diluting the Zirgan ganciclovir ophthalmic gel (4.5 mM GAN) into 0.2% carbomer gel. The two gels were mixed in a 4 mL plastic vial by shaking. Around […] GAN gel was applied to each plant each time, and the gel application was renewed every three to five days.
(§5) We tested whether the carbomer gel itself would have an influence on plant regeneration. We included a group of wildtype plants that received no treatment, and a group of wildtype plants that received carbomer gel containing no GAN. All plants in both groups, except one plant in the control set, regenerated new shoots. Therefore, we eliminated the possibility of regeneration interference from the gel.
(§6) One month after the decapitation and application of GAN selection, the regeneration of shoots was evaluated. In the control plants with 0 mM GAN treatment, including HSVtk and wildtype plants, almost all the plants regenerated new shoots. […] Thus, we concluded that GAN was toxic to both HSVtk plants and wildtype plants at a concentration higher than 0.1 mM. However, as the GAN concentration increased, HSVtk plants became more sensitive to it than wildtype plants. At a concentration of 4.5 mM, GAN could prevent regeneration of the HSVtk plants, while still allowing some wildtype plants to regenerate. Therefore we decided to use a 2 mM dose as the effective selecting agent in our future experiments.

HSVtk transgene = test: CRISPR editing after agro-injection, decapitation and ganciclovir selection: HSVtk; type: in vivo, tomato; details: ganciclovir counter-selection of HSVtk+Cas9 lines, regenerated shoots
Description: In example two, we decapitated the seedlings at the first internode so that cells that were genome edited could form a callus, regenerate new meristems and stems. The Cas9 expressing mother plants were injected with the viral replicon vector and decapitated at the epicotyl a week later. The decapitation site was covered with parafilm and an aluminum foil cap for 4 weeks. Any axillary buds in the cotyledon node were removed. When a solid callus mass was visible (approx. four weeks after decapitation) at the wound site, the caps were removed and ganciclovir was applied (2 mM concentration of the compound in a carbomer gel). Every meristem that developed into a healthy shoot was detached and propagated to fruiting. Mutation level and type were analyzed by PCR and sequencing of amplicons flanking the target genomic sites. Regenerated stems were evaluated for mutation in the marker and POTATO LEAF (C) sequences and the expected change in leaf shape typical of a C knockout. We evaluated the correlation between the Cas9 modified HSVtk and C.
Agrobacterium glycerol stocks transformed with pTRV or pTAV vectors were streaked onto LB plates containing appropriate antibiotics based on plasmids and agro strains. […] After 24 hours, cultures were measured for OD600 using spectrophotometer. […] The next day, OD600 was measured for each culture. […]

transgene-free explants = details: 0.1 mM GAN; cited from earlier work
HSVtk plants = test: Toxicity of GAN: shoot regeneration of decapitated HSVtk plants; type: in vivo, tomato; details: for Regeneration of HSVtk plants: one month after decapitation
Description: as §1, §2, §3, §4, §5, §6

C[C@@H](N)C(=O)O [D-alanine]
influence on plant growth (Arabidopsis thaliana): inhibit plant growth even at a low concentration

CC[C@@H](C)[C@@H](N)C(=O)O [D-isoleucine]
influence on plant growth (Arabidopsis thaliana): very little influence on plant growth
effect on plants that express DAAO (plants that express DAAO): deleterious effects

N[C@H](CO)C(=O)O [D-serine]
influence on plant growth (Arabidopsis thaliana): inhibit plant growth even at a low concentration

CC(C)[C@@H](N)C(=O)O [D-valine]
influence on plant growth (Arabidopsis thaliana): very little influence on plant growth
effect on plants that express DAAO (plants that express DAAO): deleterious effects

Nc1nc(O)c2ncn(COC(CO)CO)c2n1 [GAN, ganciclovir]
shoot regeneration on transgenic root explants or callus formation on leaf explants [1]: significantly reduce
Regeneration of transgene-free plants (plants regenerated out of treated) (transgene-free plants; 0.1 mM GAN): (14 out of 15)
Regeneration of transgene-free plants (control) (transgene-free plants; 0.1 mM GAN gel): 93%
Regeneration of transgene-free plants (plants regenerated out of treated) (transgene-free plants; 1 mM GAN): (8 out of 15)
Regeneration of transgene-free plants (control) (transgene-free plants; 1 mM GAN gel): 53%
Regeneration of transgene-free plants (plants regenerated out of treated) (transgene-free plants; 4.5 mM GAN): 6 out of 23 and (6 out of 23)
Regeneration of transgene-free plants (control) (transgene-free plants; 4.5 mM GAN gel): 26%
escapes at current ganciclovir concentrations (HSVtk transgene): ~60%
regeneration of transgene-free explants (transgene-free explants): does not affect
Regeneration of HSVtk plants (plants regenerated out of treated) (HSVtk plants; 0.1 mM GAN): (16 out of 18)
Regeneration of HSVtk plants (HSVtk plants; 0.1 mM GAN gel on decapitated plants): 89%
Regeneration of HSVtk plants (plants regenerated out of treated) (HSVtk plants; 1 mM GAN): (4 out of 16)
Regeneration of HSVtk plants (HSVtk plants; 1 mM GAN gel on decapitated plants): 25%
Regeneration of HSVtk plants (plants regenerated out of treated) (HSVtk plants; 4.5 mM GAN): none of the HSVtk plants regenerated; also recorded: (0 out of 10)
Regeneration of HSVtk plants (HSVtk plants; 4.5 mM GAN gel on decapitated plants): 0%
Concentration at which GAN was toxic to both HSVtk plants and wildtype plants (HSVtk plants; decapitated plants, GAN gel, HSVtk and wildtype plants): higher than 0.1 mM
